Experimental data: paper PMC11879040, “Advancing systemic toxicity risk assessment: Evaluation of a NAM-based toolbox approach” (Toxicological Sciences, 2024)
Read-outs that look alike come from different tables or passages of the source.

Assays:
[1] = Assignment of risk classifications to benchmark chemical-exposure scenarios; conditions: for risk: from table S1
[2] = target: Kappa-type opioid receptor OPRK1 (h) (Homo sapiens, UniProt P41145); conditions: control U 50488
[3] = target: Dopamine receptor D2, DRD2 (h) (Homo sapiens, UniProt P14416); conditions: control 7-OH-DPAT
[4] = target: T1, Beta-2 adrenergic receptor, ADRB2 (h) (Homo sapiens, UniProt P07550); assay: IPP ADRB2 binding (antagonist radioligand); conditions: control ICI 118551
T1 construct: purchased Eurofins Cerep (SafetyScreen44-based IPP panel)

[5] = test system: Sodium channel protein type 5 subunit alpha (site 2), SCN5A (r); assay type: binding, rat
[6] = target: T2, Adenosine receptor A2a, ADORA2A (h) (Homo sapiens, UniProt P29274); assay: IPP ADORA2A binding (agonist radioligand); conditions: control NECA
T2 construct: purchased Eurofins Cerep (SafetyScreen44-based IPP panel)

[7] = target: Vasopressin V1a receptor, AVPR1A (h) (Homo sapiens, UniProt P37288); assay: IPP AVPR1A binding (agonist radioligand); conditions: ligand/control [d(CH2)5 1,Tyr(Me)2]-AVP
[8] = target: Neuronal acetylcholine receptor subunit alpha-4, CHRNA4 (h) (Homo sapiens, UniProt P17787+P43681); conditions: control nicotine
[9] = target: Voltage-dependent L-type Ca2+ channel (dihydropyridine site), CACNA1C (r) (Rattus norvegicus, UniProt P22002); assay type: binding
[10] = target: Carbonic anhydrase II, CA2 (h) (Homo sapiens, UniProt P00918); assay: IPP CA2 enzymatic activity; assay type: biochemical; conditions: 10 uM; control acetazolamide
[11] = test system: Gamma-aminobutyric acid receptor subunit alpha-1 BZD site, GABRA1A (r); assay type: binding, rat
[12] = target: Sodium-dependent serotonin transporter, SLC6A4 (h) (Homo sapiens, UniProt P31645); assay type: binding; conditions: control imipramine
[13] = test system: Thyroid hormone receptor alpha, THRA (h); assay: IPP THRA coactivator recruitment (agonist); assay type: biochemical, human
HepG2 cells = assay: High-throughput transcriptomics (HTTr, TempO-Seq), HepG2, 24 h; assay type: cell-based, human; conditions: HepG2; for pod_httr_bifrost PoD: HTTr BIFROST PoD; for podl_path_minbmd PoD: HTTr minimum pathway BMD(L)
Method: HepG2, HepaRG, and MCF7 cells were treated with each compound for 24 h across a dose range of 7 concentrations and lysed using TempO-Seq lysis buffer (BioSpyder Technologies, proprietary kit, see [Middleton et al. 2022] for method details). Sequencing was performed using TempO-Seq (BioClavis) version 2 of the human whole transcriptome panel and analyzed as described previously in Middleton et al.

[14] = target: T3, Prostaglandin G/H synthase 2, PTGS2 (h) (Homo sapiens, UniProt P35354); assay: IPP PTGS2 enzymatic activity; assay type: biochemical; conditions: control NS398
T3 sequence (P35354 18-604): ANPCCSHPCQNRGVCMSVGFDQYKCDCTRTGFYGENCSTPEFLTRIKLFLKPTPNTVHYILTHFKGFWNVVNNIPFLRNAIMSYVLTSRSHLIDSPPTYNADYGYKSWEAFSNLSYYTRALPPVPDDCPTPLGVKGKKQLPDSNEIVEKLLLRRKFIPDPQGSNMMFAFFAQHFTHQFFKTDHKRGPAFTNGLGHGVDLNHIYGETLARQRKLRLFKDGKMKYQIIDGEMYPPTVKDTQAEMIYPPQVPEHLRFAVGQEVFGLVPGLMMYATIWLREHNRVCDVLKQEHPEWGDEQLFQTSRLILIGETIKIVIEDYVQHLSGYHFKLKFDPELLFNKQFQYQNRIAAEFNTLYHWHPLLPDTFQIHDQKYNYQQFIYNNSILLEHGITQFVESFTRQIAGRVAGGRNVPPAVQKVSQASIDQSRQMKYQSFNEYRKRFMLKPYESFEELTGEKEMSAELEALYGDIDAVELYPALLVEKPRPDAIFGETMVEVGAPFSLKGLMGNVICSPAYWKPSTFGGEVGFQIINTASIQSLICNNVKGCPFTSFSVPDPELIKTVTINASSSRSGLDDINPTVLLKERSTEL

[15] = target: 5-hydroxytryptamine receptor 1B, HTR1B (h) (Homo sapiens, UniProt P28222); assay type: binding; conditions: IPP screening at 10 uM; control serotonin
[16] = target: Histamine H1 receptor, HRH1 (h) (Homo sapiens, UniProt P35367); assay: IPP HRH1 binding (antagonist radioligand); conditions: control pyrilamine
[17] = target: 5-hydroxytryptamine receptor 2A, HTR2A (h) (Homo sapiens, UniProt P28223); assay type: binding
[18] = target: Dopamine receptor D1, DRD1 (h) (Homo sapiens, UniProt P21728); conditions: control SCH 23390
[19] = IPP screening at 10 uM, control diazepam
[20] = IPP screening at 10 uM, control (±)DOI

Sequence of Kappa-type opioid receptor OPRK1 (h) (P41145 whole entry): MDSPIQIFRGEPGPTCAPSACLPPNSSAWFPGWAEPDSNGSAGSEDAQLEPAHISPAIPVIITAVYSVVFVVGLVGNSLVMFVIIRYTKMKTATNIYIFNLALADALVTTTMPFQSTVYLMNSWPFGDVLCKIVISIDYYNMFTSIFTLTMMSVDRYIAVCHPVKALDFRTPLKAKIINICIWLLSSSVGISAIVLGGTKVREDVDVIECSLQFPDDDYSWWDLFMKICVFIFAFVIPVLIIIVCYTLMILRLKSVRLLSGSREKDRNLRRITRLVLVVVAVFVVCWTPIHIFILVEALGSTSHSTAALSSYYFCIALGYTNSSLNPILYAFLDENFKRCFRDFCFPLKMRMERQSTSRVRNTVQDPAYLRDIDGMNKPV
Sequence of Dopamine receptor D2, DRD2 (h) (P14416 whole entry): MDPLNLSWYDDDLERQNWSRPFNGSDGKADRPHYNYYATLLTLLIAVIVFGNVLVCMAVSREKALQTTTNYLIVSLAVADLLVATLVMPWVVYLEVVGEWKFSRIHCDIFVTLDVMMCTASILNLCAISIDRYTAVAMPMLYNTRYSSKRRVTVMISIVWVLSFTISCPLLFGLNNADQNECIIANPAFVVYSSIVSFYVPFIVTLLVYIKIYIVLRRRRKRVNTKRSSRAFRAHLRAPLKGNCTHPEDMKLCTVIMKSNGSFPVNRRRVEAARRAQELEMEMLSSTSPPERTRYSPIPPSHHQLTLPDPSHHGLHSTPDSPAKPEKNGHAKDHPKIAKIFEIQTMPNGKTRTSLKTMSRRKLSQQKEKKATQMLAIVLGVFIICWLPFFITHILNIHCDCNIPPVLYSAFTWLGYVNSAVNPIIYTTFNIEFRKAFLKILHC
Sequence of Sodium-dependent serotonin transporter, SLC6A4 (h) (P31645 whole entry): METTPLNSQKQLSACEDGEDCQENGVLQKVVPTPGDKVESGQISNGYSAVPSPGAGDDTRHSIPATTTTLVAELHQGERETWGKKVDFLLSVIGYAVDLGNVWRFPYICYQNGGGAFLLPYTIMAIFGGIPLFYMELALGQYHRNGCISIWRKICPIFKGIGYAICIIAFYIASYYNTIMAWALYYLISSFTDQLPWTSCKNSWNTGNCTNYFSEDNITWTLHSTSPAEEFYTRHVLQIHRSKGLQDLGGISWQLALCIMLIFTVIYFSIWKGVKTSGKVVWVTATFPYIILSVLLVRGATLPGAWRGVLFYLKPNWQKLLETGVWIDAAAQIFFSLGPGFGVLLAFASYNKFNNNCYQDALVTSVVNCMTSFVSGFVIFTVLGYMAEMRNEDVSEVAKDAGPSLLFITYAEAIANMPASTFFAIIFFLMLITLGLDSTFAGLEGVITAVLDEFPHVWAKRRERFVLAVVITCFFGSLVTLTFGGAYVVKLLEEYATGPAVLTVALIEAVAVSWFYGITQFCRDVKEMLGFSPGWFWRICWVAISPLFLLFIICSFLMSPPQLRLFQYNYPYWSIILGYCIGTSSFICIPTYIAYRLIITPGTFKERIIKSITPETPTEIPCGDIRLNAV
Sequence of Vasopressin V1a receptor, AVPR1A (h) (P37288 whole entry): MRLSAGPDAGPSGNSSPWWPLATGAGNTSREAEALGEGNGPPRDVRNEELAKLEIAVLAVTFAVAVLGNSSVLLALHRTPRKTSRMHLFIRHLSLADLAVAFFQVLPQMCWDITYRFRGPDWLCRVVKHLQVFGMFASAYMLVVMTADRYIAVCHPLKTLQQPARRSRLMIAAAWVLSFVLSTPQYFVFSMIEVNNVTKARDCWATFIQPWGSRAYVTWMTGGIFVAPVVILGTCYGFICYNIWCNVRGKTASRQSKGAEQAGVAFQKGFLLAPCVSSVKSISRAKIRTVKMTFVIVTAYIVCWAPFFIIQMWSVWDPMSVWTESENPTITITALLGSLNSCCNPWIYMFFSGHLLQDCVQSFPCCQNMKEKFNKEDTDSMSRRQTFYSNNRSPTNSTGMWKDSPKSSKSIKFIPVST
Sequence of 5-hydroxytryptamine receptor 2A, HTR2A (h) (P28223 whole entry): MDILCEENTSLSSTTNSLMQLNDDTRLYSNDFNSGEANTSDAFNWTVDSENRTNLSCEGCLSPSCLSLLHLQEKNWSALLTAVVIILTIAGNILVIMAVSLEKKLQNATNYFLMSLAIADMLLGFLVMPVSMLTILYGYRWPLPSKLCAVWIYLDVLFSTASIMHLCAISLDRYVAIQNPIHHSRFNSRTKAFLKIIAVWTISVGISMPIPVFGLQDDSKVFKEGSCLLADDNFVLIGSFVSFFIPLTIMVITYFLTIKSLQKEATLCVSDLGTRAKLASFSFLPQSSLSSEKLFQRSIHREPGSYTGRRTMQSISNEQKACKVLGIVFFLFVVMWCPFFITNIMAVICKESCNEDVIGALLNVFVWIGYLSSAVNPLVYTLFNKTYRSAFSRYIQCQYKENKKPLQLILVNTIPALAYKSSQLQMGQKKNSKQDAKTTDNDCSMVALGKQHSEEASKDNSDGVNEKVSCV
T2 sequence (P29274 whole entry): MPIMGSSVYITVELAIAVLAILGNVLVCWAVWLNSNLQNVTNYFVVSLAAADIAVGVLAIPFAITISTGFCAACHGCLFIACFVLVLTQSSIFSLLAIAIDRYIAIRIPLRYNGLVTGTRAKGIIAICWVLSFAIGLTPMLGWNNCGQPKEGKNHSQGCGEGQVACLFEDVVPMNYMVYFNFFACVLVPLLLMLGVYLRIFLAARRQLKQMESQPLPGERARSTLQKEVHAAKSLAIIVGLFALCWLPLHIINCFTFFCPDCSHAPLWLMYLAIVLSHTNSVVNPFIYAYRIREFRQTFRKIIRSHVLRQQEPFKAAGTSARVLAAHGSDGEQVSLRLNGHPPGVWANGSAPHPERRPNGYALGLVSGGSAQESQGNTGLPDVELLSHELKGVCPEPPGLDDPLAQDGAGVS
Sequence of Dopamine receptor D1, DRD1 (h) (P21728 whole entry): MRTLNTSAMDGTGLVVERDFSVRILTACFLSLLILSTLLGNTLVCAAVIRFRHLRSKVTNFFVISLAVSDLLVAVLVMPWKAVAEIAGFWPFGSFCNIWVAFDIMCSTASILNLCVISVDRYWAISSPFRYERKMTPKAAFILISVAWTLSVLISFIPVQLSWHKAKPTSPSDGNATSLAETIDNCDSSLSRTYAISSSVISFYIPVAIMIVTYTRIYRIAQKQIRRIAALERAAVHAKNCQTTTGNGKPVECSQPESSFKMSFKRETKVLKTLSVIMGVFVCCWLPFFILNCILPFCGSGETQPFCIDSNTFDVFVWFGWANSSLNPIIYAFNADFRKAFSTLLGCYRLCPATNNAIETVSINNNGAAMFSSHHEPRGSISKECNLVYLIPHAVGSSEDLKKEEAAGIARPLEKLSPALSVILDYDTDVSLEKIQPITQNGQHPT
Sequence of Neuronal acetylcholine receptor subunit alpha-4, CHRNA4 (h) (P43681 29-627 limits assumed): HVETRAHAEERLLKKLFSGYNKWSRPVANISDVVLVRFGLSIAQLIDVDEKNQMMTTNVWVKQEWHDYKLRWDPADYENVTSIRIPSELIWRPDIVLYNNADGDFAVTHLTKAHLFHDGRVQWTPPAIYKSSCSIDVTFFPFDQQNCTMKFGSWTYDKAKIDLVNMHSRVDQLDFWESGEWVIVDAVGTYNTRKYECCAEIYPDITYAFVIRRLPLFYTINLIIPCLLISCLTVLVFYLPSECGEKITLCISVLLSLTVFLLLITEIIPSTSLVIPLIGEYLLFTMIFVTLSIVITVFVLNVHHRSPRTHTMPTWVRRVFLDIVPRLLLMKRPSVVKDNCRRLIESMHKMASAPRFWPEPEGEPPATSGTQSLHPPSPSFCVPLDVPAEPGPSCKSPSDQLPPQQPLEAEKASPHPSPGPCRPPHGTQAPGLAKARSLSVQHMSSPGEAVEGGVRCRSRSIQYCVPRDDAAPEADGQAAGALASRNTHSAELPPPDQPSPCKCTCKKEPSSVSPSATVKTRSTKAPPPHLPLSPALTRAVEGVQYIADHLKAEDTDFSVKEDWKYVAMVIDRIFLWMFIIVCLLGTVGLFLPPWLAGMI
Sequence of Neuronal acetylcholine receptor subunit alpha-4, CHRNA4 (h) (P17787 26-502): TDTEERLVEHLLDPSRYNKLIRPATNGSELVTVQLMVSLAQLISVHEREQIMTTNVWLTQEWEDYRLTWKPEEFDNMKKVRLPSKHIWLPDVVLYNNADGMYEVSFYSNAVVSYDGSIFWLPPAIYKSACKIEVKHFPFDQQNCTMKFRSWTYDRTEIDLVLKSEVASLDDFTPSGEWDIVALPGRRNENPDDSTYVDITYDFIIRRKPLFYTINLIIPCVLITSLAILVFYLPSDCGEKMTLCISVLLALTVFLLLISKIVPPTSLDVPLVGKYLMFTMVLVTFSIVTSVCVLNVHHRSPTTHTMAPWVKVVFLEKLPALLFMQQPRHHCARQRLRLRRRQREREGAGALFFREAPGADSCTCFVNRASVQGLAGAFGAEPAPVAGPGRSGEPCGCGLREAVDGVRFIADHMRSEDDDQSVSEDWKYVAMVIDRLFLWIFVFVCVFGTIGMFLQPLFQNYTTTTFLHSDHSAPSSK
Sequence of Histamine H1 receptor, HRH1 (h) (P35367 whole entry): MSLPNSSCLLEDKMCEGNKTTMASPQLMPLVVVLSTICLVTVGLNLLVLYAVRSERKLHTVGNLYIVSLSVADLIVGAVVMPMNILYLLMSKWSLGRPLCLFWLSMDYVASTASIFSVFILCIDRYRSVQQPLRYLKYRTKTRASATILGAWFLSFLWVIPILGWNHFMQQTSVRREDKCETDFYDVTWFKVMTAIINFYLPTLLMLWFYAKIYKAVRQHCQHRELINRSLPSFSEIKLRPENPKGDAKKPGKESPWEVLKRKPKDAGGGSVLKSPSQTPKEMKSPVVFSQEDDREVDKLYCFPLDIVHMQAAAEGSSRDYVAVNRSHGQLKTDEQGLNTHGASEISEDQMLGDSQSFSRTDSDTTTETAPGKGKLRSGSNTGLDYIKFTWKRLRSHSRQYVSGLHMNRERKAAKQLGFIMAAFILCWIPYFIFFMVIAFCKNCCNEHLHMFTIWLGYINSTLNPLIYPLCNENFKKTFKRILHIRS

`CCOP(=S)(OCC)Oc1nc(Cl)c(Cl)cc1Cl` [Chlorpyrifos, O,O-Diethyl O-(3,5,6-trichloropyridin-2-yl) phosphorothioate] gave a risk ([1]; Oral, 0.1 mg/kg, Tablet, Exp3) of 1, a Specific binding ([2]; IPP screening at 10 uM) of 27.7% and a Specific binding ([3]; IPP screening at 10 uM) of 12.6%. The Specific binding ([4]; IPP screening at 10 uM) was -2.4%, the Specific binding [5] was 13.4% and the Specific binding ([6]; IPP screening at 10 uM) was 15.6%. The “IPP screening %, Specific binding” value ([7]; 10 uM) was -6.8%, the Specific binding ([8]; IPP screening at 10 uM) was -6.9% and the Specific binding [9] was 47.7%. The “IPP screening %, Enzymatic activity” value [10] was 5.1%, the Specific binding [11, 19] was -11.0% and the Specific binding ([12]; IPP screening at 10 uM) was -9.1%. The “IPP screening %, Coactivator recruitment” value ([13]; 10 uM, agonist, T3) was 2.0%, the “pod_httr_bifrost PoD” value (HepG2 cells) was 0.000303 µM and the “podl_path_minbmd PoD” value (HepG2 cells) was 2.42 µM. The Enzymatic activity ([14]; IPP screening at 10 uM) was -4.1%, the Specific binding [15] was -20.1% and the Specific binding ([16]; IPP screening at 10 uM) was 17.6%. It also gave a Specific binding [17, 20] of 52.0% and a Specific binding ([18]; IPP screening at 10 uM) of 1.9%.
In the case of `CC(C)(C)c1ccc(CCOc2ncnc3ccccc23)cc1` [Fenazaquin, 4-[2-(4-tert-Butylphenyl)ethoxy]quinazoline], the “Risk Classification” value ([1]; Oral, residue, 0.005 mg/kg bw/day) was “Low risk”, the risk ([1]; Oral, 17% ADI 0.005 mg/kg bw/day, Food residue, Exp2) was 0 and the risk ([1]; Oral, ADI 0.005 mg/kg bw/day, Food residue, Exp3) was 0. For the same molecule, the Specific binding ([2]; IPP screening at 10 uM) was 56.7%, the Specific binding ([3]; IPP screening at 10 uM) was 16.5% and the Specific binding ([4]; IPP screening at 10 uM) was -1.2%. The Specific binding ([5]; IPP screening at 10 uM, control veratridine) was 39.5%, the Specific binding ([6]; IPP screening at 10 uM) was 47.1% and the “IPP screening %, Specific binding” value ([7]; 10 uM) was -5.5%. The Specific binding ([8]; IPP screening at 10 uM) was -6.4%, the Specific binding ([9]; IPP screening at 10 uM, control nitrendipine) was 19.8% and the “IPP screening %, Enzymatic activity” value [10] was -0.2%. For the same molecule, the Specific binding [11, 19] was 7.6%, the Specific binding ([12]; IPP screening at 10 uM) was 4.6% and the “IPP screening %, Coactivator recruitment” value ([13]; 10 uM, agonist, T3) was -1.0%. The “pod_httr_bifrost PoD” value (HepG2 cells) was 0.0002567 µM, the “podl_path_minbmd PoD” value (HepG2 cells) was 0.002178 µM and the Enzymatic activity ([14]; IPP screening at 10 uM) was 0.8%. For the same molecule, the Specific binding [15] was -2.2%, the Specific binding ([16]; IPP screening at 10 uM) was 37.0% and the Specific binding [17, 20] was 20.7%. It also gave a Specific binding ([18]; IPP screening at 10 uM) of 4.5%.
With `CC1(C)O[C@@H]2[C@@H](CO[C@@]3(COS(N)(=O)=O)OC(C)(C)O[C@@H]23)O1` [Topiramate, [(3aS,5aR,8aR,8bS)-2,2,7,7-Tetramethyltetrahydro-2H,3aH,7H-bis[1,3]dioxolo[4,5-b:4',5'-d]pyran-3a-yl]methyl sulfamate (non-preferred name)] the “Risk Classification” value ([1]; Oral 50 mg/day) was “High risk”, the “Risk Classification” value ([1]; Oral 500 mg/day) was “High risk” and the risk ([1]; Oral, High therapeutic, 500mg/day, Tablet, Exp1) was 1. The risk ([1]; Oral, Low therapeutic, 50mg/day, Tablet, Exp2) was 1, the Specific binding ([2]; IPP screening at 100 uM) was 3.7% and the Specific binding ([3]; IPP screening at 100 uM) was 13.3%. For the same molecule, the Specific binding ([4]; IPP screening at 100 uM) was 3.5%, the Specific binding ([5]; IPP screening at 100 uM, control veratridine) was 30.2% and the Specific binding ([6]; IPP screening at 100 uM) was 0.9%. For the same molecule, the “IPP screening %, Specific binding” value ([7]; 100 uM) was 7.2%, the Specific binding ([8]; IPP screening at 100 uM) was 3.3% and the Specific binding [9] was -33.5%. The Specific binding ([11]; IPP screening at 100 uM, control diazepam) was 9.7%, the Specific binding ([12]; IPP screening at 100 uM) was 3.5% and the “IPP screening %, Coactivator recruitment” value ([13]; 100 uM, agonist, T3, * denotes assay interference (2-Amino-6-chloro-4-nitrophenol, HC Red 3)) was 0.0%. The “pod_httr_bifrost PoD” value (HepG2 cells) was 3696.73 µM, the “podl_path_minbmd PoD” value (HepG2 cells) was 6631.79 µM and the Enzymatic activity ([14]; IPP screening at 100 uM) was 4.1%. The Specific binding ([16]; IPP screening at 100 uM) was 5.8%, the Specific binding ([17]; IPP screening at 100 uM; control ±)DOI) was 0.9% and the Specific binding ([18]; IPP screening at 100 uM) was -2.4%.
“(4S,4aR,5S,5aR,6S,12aS)-4-(Dimethylamino)-3,5,6,10,12,12a-hexahydroxy-6-methyl-1,11-dioxo-1,4,4a,5,5a,6,11,12a-octahydrotetracene-2-carboxamide--hydrogen chloride (1/1) [Oxytetracycline hydrochloride]” gave a Specific binding ([2]; IPP screening at 10 uM) of 7.3%, a Specific binding ([3]; IPP screening at 10 uM) of 22.7% and a Specific binding ([4]; IPP screening at 10 uM) of 0.6%. For the same molecule, the Specific binding [5] was 10.5%, the Specific binding ([6]; IPP screening at 10 uM) was 7.5% and the “IPP screening %, Specific binding” value ([7]; 10 uM) was 1.6%. For the same molecule, the Specific binding ([8]; IPP screening at 10 uM) was -2.5%, the Specific binding [9] was -32.1% and the “IPP screening %, Enzymatic activity” value [10] was 0.7%. The Specific binding [11, 19] was -0.4%, the “IPP screening %, Coactivator recruitment” value ([13]; 10 uM, agonist, T3) was 1.0% and the Enzymatic activity ([14]; IPP screening at 10 uM) was 14.5%. The Specific binding [15] was -8.9% and the Specific binding ([18]; IPP screening at 10 uM) was 1.4%.
“mixture of 2- and 3-tert-butyl-4-methoxyphenol [Butylated Hydroxyanisole]” showed a Specific binding ([2]; IPP screening at 10 uM) of 13.5%, a Specific binding ([3]; IPP screening at 10 uM) of -16.2% and a Specific binding ([4]; IPP screening at 10 uM) of 0.4%. The Specific binding [5] was 16.8%, the Specific binding ([6]; IPP screening at 10 uM) was 2.8% and the “IPP screening %, Specific binding” value ([7]; 10 uM) was 15.2%. The Specific binding ([8]; IPP screening at 10 uM) was -5.0%, the Specific binding [9] was -14.2% and the “IPP screening %, Enzymatic activity” value [10] was -0.4%. For the same molecule, the Specific binding [11] was -10.9%, the Specific binding ([12]; IPP screening at 10 uM) was 2.8% and the “IPP screening %, Coactivator recruitment” value [13] was 3.0%. For the same molecule, the Enzymatic activity ([14]; IPP screening at 10 uM) was 62.4%, the Specific binding [15] was 0.6% and the Specific binding ([16]; IPP screening at 10 uM) was -2.1%. It also gave a Specific binding [17, 20] of 74.3% and a Specific binding ([18]; IPP screening at 10 uM) of 3.5%.
